Assays:
Assay type in all cases: in vivo
[1] = system: delayed-type hypersensitivity to N-acetyltyrosine-3-azobenzene-4'-arsonic acid (ABA-N-Ac-Tyr); experiment: Adjuvant activity: enhancement of induction of delayed-type hypersensitivity (skin reaction); settings: guinea pig, 100 μg/animal compound with 50 μg ABA-N-Ac-Tyr in FIA into soles, 100 μg ABA-BSA intradermal two weeks later, mean ± SE; for Skin Reaction 24 Hours (diameter of erythema and induration): read 24 hours after injection; for Skin Reaction 48 Hours (diameter of erythema and induration): read 48 hours after injection
Experimental: The adjuvant activity was confirmed by the enhancing activity on the induction of delayed-type hypersensitivity to N-acetyltyrosine-3-azobenzene-4'-arsonic acid (hereinafter referred to as ABA-N-Ac-Tyr) in guinea pig.
That is, a water-in-oil emulsion prepared by mixing 50 μg/animal of ABA-N-Ac-Tyr and 100 μg/animal of each of the compounds of the present invention with Freund's incomplete adjuvant (hereinafter referred to as FIA) was administered to the soles of guinea pigs. Two weeks later, 100 μg of 3-azobenzene-4'-arsonic acid bonded to bovine serum albumin (hereinafter referred to as ABA-BSA) was intradermally injected and the diameter of skin reaction (i.e., erythema and induration) was measured 24 hours and 48 hours after the injection. The diameter of the skin reaction is considered a measure of cellular immunity.

E. coli E77156 = experiment: Prophylactic effect against microbial infection in mice; settings: STD-ddy male mice, 100 μg/mouse s.c. 24 hours before s.c. challenge
Experimental: (2) Prophylactic Effect Against Microbial Infection
Animals: Groups of 20 STD-ddy male mice, 5 weeks of age, were used.
Bacteria: E. coli E77156 which has been maintained in a freezed-culture was used.
Agents: Compounds of the present invention were dissolved or suspended in Dulbecco phosphate-buffered saline (PBS: pH 7.4) at a concentration of 500 μg/ml just before use.
Treatment and Infection: The animals were treated subcutaneously with 0.2 ml of each of the above solution or suspension (equivalent to 100 μg/mouse), followed by the subcutaneous challenge with E. coli 24 hours later.
The effect was judged from the percent survival of the mice seven days after the infection.

Meth-A tumor cells = experiment: Antitumor activity against Meth-A system; settings: BALB/c mice; Meth-A 1.5×10^6 cells mixed with 100 μg compound in PBS, intradermal; 27th day after inoculation
Experimental: (3) Antitumor Activity Against Meth-A System
A mixture of tumor cells (Meth-A, 1.5×10^6) and 100 μg of Compound 20 of the present invention suspended in PBS was inoculated intradermally in BALB/c mice. […] The value is expressed in terms of the number of tumor-free mice/the number of mice tested.

[2] = inoculum 4.4 × 10^6 cells/mouse
[3] = inoculum 6.17 × 10^6 cells/mouse

Structure (SMILES)	Skin Reaction 24 Hours (diameter of erythema and induration) [1]	Skin Reaction 48 Hours (diameter of erythema and induration) [1]	% Survival 7 days after Infection (E. coli E77156; [3])	further results
COC(=O)CC[C@@H](NC(=O)[C@H](C)NC(=O)[C@@H](C)O[C@H]1[C@H](O)[C@@H](CO)O[C@@H](SC(C)=O)[C@@H]1NC(C)=O)C(N)=O [Compound 2, 2-Acetamido-1-S-acetyl-2-deoxy-3-O-(D-2-propanoyl-L-alanyl-D-isoglutaminemethyl ester)-1-thio-β-D-glucopyranose]	21.0 ± 1.0 mm	21.0 ± 0.7 mm	–	–
COC(=O)CC[C@@H](NC(=O)[C@H](C)NC(=O)[C@@H](C)O[C@H]1[C@H](O)[C@@H](CO)O[C@@H](S)[C@@H]1NC(C)=O)C(N)=O [Compound 3, 2-Acetamido-2-deoxy-3-O-(D-2-propanoyl-L-alanyl-D-isoglutaminemethyl ester)-1-thio-β-D-glucopyranose]	22.1 ± 0.9 mm	20.9 ± 0.7 mm	–	–
CC(=O)NC1C(S)OC(CO)C(O)C1OC(C)C(=O)NC(C)C(=O)NC(CCC(=O)O)C(N)=O [Compound 4, 2-acetamido-2-deoxy-3-O-(D-2-propanoyl-L-alanyl-D-isoglutamine)-1-thio-β-D-glucopyranose]	23.1 ± 1.2 mm	21.0 ± 1.3 mm	–	% Survival 7 days after Infection (E. coli E77156; [2]): 55%
CCCCS[C@@H]1O[C@H](CO)[C@@H](O)[C@H](O[C@H](C)C(=O)N[C@@H](C)C(=O)N[C@H](CCC(=O)OC)C(N)=O)[C@H]1NC(C)=O [Compound 8, 1-S-n-Butyl 2-acetamido-2-deoxy-3-O-(D-2-propanoyl-L-alanyl-D-isoglutaminemethyl ester)-1-thio-β-D-glucopyranoside]	14.5 ± 0.7 mm	10.3 ± 1.0 mm	–	–
CCCCCCCCCCCCCCCCSC1OC(CO)C(O)C(OC(C)C(=O)NC(C)C(=O)NC(CCC(=O)OC)C(N)=O)C1NC(C)=O [Compound 9, 1-S-Hexadecanyl 2-acetamido-2-deoxy-3-O-(D-2-propanoyl-L-alanyl-D-isoglutaminemethyl ester)-1-thio-β-D-glucopyranoside]	13.5 ± 0.8 mm	12.4 ± 0.7 mm	–	–
CCCCSC1OC(CO)C(O)C(OC(C)C(=O)NC(C)C(=O)NC(CCC(=O)O)C(N)=O)C1NC(C)=O [Compound 10, 1-S-n-Butyl 2-acetamido-2-deoxy-3-O-(D-2-propanoyl-L-alanyl-D-isoglutamine)-1-thio-β-D-glucopyranoside]	17.4 ± 1.7 mm	13.6 ± 1.8 mm	–	–
CCCCCCCCCCCCCCCCSC1OC(CO)C(O)C(OC(C)C(=O)NC(C)C(=O)NC(CCC(=O)O)C(N)=O)C1NC(C)=O [Compound 11, 1-S-Hexadecanyl 2-acetamido-2-deoxy-3-O-(D-2-propanoyl-L-alanyl-D-isoglutamine)-1-thio-β-D-glucopyranoside]	15.6 ± 1.9 mm	11.6 ± 1.4 mm	–	–
CCCCCCCCCCCCCCCC(=O)S[C@@H]1O[C@H](CO)[C@@H](O)[C@H](O[C@H](C)C(=O)N[C@@H](C)C(=O)N[C@H](CCC(=O)OC)C(N)=O)[C@H]1NC(C)=O [Compound 14, 2-Acetamido-2-deoxy-1-S-hexadecanoyl-3-O-(D-2-propanoyl-L-alanyl-D-isoglutaminemethyl ester)-1-thio-β-D-glucopyranose]	20.4 ± 0.7 mm	21.0 ± 1.4 mm	–	% Survival 7 days after Infection (E. coli E77156; [2]): 80%
CC(=O)NC1C(S)OC2COC(C)(C)OC2C1OC(C)C(=O)NC(C)C(=O)NC(CCC(=O)O)C(N)=O [Compound 15, 2-Acetamido-2-deoxy-4,6-O-isopropylidene-3-O-(D-2-propanoyl-L-alanyl-D-isoglutamine)-1-thio-β-D-glucopyranose]	16.9 ± 0.8 mm	14.0 ± 1.0 mm	–	–
CCCCCCCCCCCCCCCC(=O)SC1OC2COC(C)(C)OC2C(OC(C)C(=O)NC(C)C(=O)NC(CCC(=O)O)C(N)=O)C1NC(C)=O [Compound 16, 2-Acetamido-2-deoxy-1-S-hexadecanoyl-4,6-O-isopropylidene-3-O-(D-2-propanoyl-L-alanyl-D-isoglutamine)-1-thio-β-D-glucopyranose]	11.3 ± 0.8 mm	5.6 ± 1.4 mm	–	–
CCCCCCCCCCCCCCCC(=O)S[C@@H]1O[C@H](CO)[C@@H](O)[C@H](O[C@H](C)C(=O)N[C@@H](C)C(=O)N[C@H](CCC(=O)O)C(N)=O)[C@H]1NC(C)=O [Compound 17, 2-Acetamido-2-deoxy-1-S-hexadecanoyl-3-O-(D-2-propanoyl-L-alanyl-D-isoglutamine)-1-thio-β-D-glucopyranose]	21.8 ± 0.8 mm	23.1 ± 1.1 mm	–	% Survival 7 days after Infection (E. coli E77156; [2]): 60%
CCCCCCCCCC(=O)S[C@@H]1O[C@H](CO)[C@@H](O)[C@H](O[C@H](C)C(=O)N[C@@H](C)C(=O)N[C@H](CCC(=O)OC)C(N)=O)[C@H]1NC(C)=O [Compound 18, 2-Acetamido-2-deoxy-1-S-decanoyl-3-O-(D-2-propanoyl-L-alanyl-D-isoglutaminemethyl ester)-1-thio-β-D-glucopyranose]	–	–	90%	–
CCCCCCCCCCCCCCCCCC(=O)S[C@@H]1O[C@H](CO)[C@@H](O)[C@H](O[C@H](C)C(=O)N[C@@H](C)C(=O)N[C@H](CCC(=O)OC)C(N)=O)[C@H]1NC(C)=O [Compound 19, 2-Acetamido-2-deoxy-1-S-octadecanoyl-3-O-(D-2-propanoyl-L-alanyl-D-isoglutaminemethyl ester)-1-thio-β-D-glucopyranose]	–	–	70%	–
CCCCCCCCCCCCCCCCCCCCCCCCCCCCCC(=O)S[C@@H]1O[C@H](CO)[C@@H](O)[C@H](O[C@H](C)C(=O)N[C@@H](C)C(=O)N[C@H](CCC(=O)OC)C(N)=O)[C@H]1NC(C)=O [Compound 20, 2-Acetamido-2-deoxy-1-S-triacontanoyl-3-O-(D-2-propanoyl-L-alanyl-D-isoglutaminemethyl ester)-1-thio-β-D-glucopyranose]	–	–	–	Suppression of Meth-A growth (number of tumor-free mice/number of mice tested) (Meth-A tumor cells): 5/9
CCCC(=O)S[C@@H]1O[C@H](CO)[C@@H](O)[C@H](O[C@H](C)C(=O)N[C@@H](C)C(=O)N[C@H](CCC(=O)OC)C(N)=O)[C@H]1NC(C)=O [Compound 21, 2-Acetamido-2-deoxy-1-S-n-butanoyl-3-O-(D-2-propanoyl-L-alanyl-D-isoglutaminemethyl ester)-1-thio-β-D-glucopyranose]	–	–	50%	–
CCCCCCCCCCCC(=O)S[C@@H]1O[C@H](CO)[C@@H](O)[C@H](O[C@H](C)C(=O)N[C@@H](C)C(=O)N[C@H](CCC(=O)O)C(N)=O)[C@H]1NC(C)=O [Compound 22, 2-Acetamido-2-deoxy-1-S-dodecanoyl-3-O-(D-2-propanoyl-L-alanyl-D-isoglutamine)-1-thio-β-D-glucopyranose]	–	–	55%	–
CCCCCCCCCCCCCC(=O)SC1OC(CO)C(O)C(OC(C)C(=O)NC(C)C(=O)NC(CCC(=O)O)C(N)=O)C1NC(C)=O [Compound 23, 2-Acetamido-2-deoxy-1-S-tetradecanoyl-3-O-(D-2-propanoyl-L-alanyl-D-isoglutamine)-1-thio-β-D-glucopyranose]	–	–	60%	–
CCCCCCCCCCCCCC(=O)S[C@@H]1O[C@H](CO)[C@@H](O)[C@H](O[C@H](C)C(=O)N[C@@H](C)C(=O)N[C@H](CCC(=O)OC)C(N)=O)[C@H]1NC(C)=O [Compound 24, 2-Acetamido-2-deoxy-1-S-tetradecanoyl-3-O-(D-2-propanoyl-L-alanyl-D-isoglutaminemethyl ester)-1-thio-β-D-glucopyranose]	–	–	65%	–
CCCCCCCCCCCCCCCCCCCC(=O)S[C@@H]1O[C@H](CO)[C@@H](O)[C@H](O[C@H](C)C(=O)N[C@@H](C)C(=O)N[C@H](CCC(=O)O)C(N)=O)[C@H]1NC(C)=O [Compound 25, 2-Acetamido-2-deoxy-1-S-eicosanoyl-3-O-(D-2-propanoyl-L-alanyl-D-isoglutamine)-1-thio-β-D-glucopyranose]	–	–	–	% Survival 7 days after Infection (E. coli E77156; inoculum 6.88 × 10^6 cells/mouse): 55%
